ChEMBL document CHEMBL2331453, “Arundinols A-C and arundinones A and B from the plant endophytic fungus Microsphaeropsis arundinis” (J Nat Prod, 2013)
≈ marks a conversion by molar mass, not a printed value.

How the values were obtained:
Staphylococcus aureus = assay: Antibacterial activity against Staphylococcus aureus ATCC 6538 after 24 hrs; type: functional; settings: ATCC 6538, 24 h
A549 = assay: Cytotoxicity against human A549 cells after 48 hrs by MTS assay; type: functional, cell-based; settings: A549, 48 h
T-24 = assay: Cytotoxicity against human T24 cells after 48 hrs by MTS assay; type: functional, cell-based; settings: T-24, 48 h

MIC (Staphylococcus aureus) | Structure (SMILES) | IC50 (A549) | IC50 (T-24)
0.46 µg/mL (≈ 1.32 µM) | CC1(C)S[C@@H]2[C@H](NC(=O)[C@H](N)c3ccccc3)C(=O)N2[C@H]1C(=O)O [AMPICILLIN] | – | –
– | COc1c(O)c(-c2c(O)c(OC)c(OC)c3c2OC(C)(O)C3=O)c2c(c1OC)C(=O)C(C)(O)O2 (centres undefined) [ARUNDINONE B] | 81.6 µM | 35.4 µM
11.4 µg/mL (≈ 48.6 µM) | C=C(C)[C@@H]1CC[C@]2(C)C(=C(C)C(=O)C[C@H]2O)C1 [LIGUCYPERONOL] | – | –
